From the NIST ThermoML archive (doi:10.1021/je8001305)

Assay: xn = mol fraction of the nth substance listed
Settings: Liquid, Vibrating tube method

CC(C)O [propan-2-ol] + O
Settings	mass density [kg/m3]
300.08 K, 7 kPa, x1 = 0.2483	895.51
300.08 K, 7.3 kPa, x1 = 0.7258	805.5
300.08 K, 88.2 kPa, x1 = 0.7258	805.57
300.08 K, 146.2 kPa, x1 = 0.2483	895.5
300.08 K, 303 kPa, x1 = 0.7258	805.78
300.08 K, 381.3 kPa, x1 = 0.2483	895.67
300.08 K, 565.1 kPa, x1 = 0.7258	806
300.08 K, 764.9 kPa, x1 = 0.2483	895.89
300.08 K, 1101.1 kPa, x1 = 0.2483	896.11
300.08 K, 1126.2 kPa, x1 = 0.7258	806.42
300.08 K, 1556.8 kPa, x1 = 0.2483	896.32
300.08 K, 1702.5 kPa, x1 = 0.7258	806.92
300.08 K, 1921.9 kPa, x1 = 0.2483	896.56
300.08 K, 2181.5 kPa, x1 = 0.2483	896.86
300.08 K, 2239.8 kPa, x1 = 0.7258	807.33
300.08 K, 2610.1 kPa, x1 = 0.2483	897.09
300.08 K, 2722.7 kPa, x1 = 0.7258	807.73
300.08 K, 3080.5 kPa, x1 = 0.2483	897.32
300.08 K, 3196 kPa, x1 = 0.7258	808.11
300.08 K, 3522.3 kPa, x1 = 0.2483	897.58
300.08 K, 3715.6 kPa, x1 = 0.7258	808.53
300.08 K, 4082.6 kPa, x1 = 0.2483	897.87
300.08 K, 4231.5 kPa, x1 = 0.7258	808.93
300.08 K, 4587.1 kPa, x1 = 0.7258	809.31
300.08 K, 4663.3 kPa, x1 = 0.2483	898.17
300.08 K, 5151.3 kPa, x1 = 0.2483	898.42
300.08 K, 5314.6 kPa, x1 = 0.7258	809.85
300.08 K, 5562.5 kPa, x1 = 0.2483	898.65
300.08 K, 5793.2 kPa, x1 = 0.7258	810.24
300.08 K, 5980.5 kPa, x1 = 0.2483	898.85
300.08 K, 6301.2 kPa, x1 = 0.7258	810.63
300.08 K, 6414.3 kPa, x1 = 0.2483	899.11
300.08 K, 6754.8 kPa, x1 = 0.2483	899.33
300.08 K, 6783.9 kPa, x1 = 0.7258	811.02
300.08 K, 7246.8 kPa, x1 = 0.2483	899.56
300.08 K, 7297.6 kPa, x1 = 0.7258	811.43
300.08 K, 7636.7 kPa, x1 = 0.2483	899.78
300.08 K, 7804.4 kPa, x1 = 0.7258	811.81
300.08 K, 8131.6 kPa, x1 = 0.2483	900.04
300.08 K, 8342.2 kPa, x1 = 0.7258	812.23
300.08 K, 8662.8 kPa, x1 = 0.2483	900.28
300.08 K, 8818 kPa, x1 = 0.7258	812.6
300.08 K, 9087.3 kPa, x1 = 0.2483	900.54
300.08 K, 9330.1 kPa, x1 = 0.7258	813
300.08 K, 9562.3 kPa, x1 = 0.2483	900.79
300.08 K, 9918.9 kPa, x1 = 0.7258	813.45
300.1 K, 7.2 kPa, x1 = 0.4939	837.98
300.1 K, 233.4 kPa, x1 = 0.4939	838.18
300.1 K, 503 kPa, x1 = 0.4939	838.33
300.1 K, 946.6 kPa, x1 = 0.4939	838.71
300.1 K, 1545.3 kPa, x1 = 0.4939	839.06
300.1 K, 1902.2 kPa, x1 = 0.4939	839.36
300.1 K, 2303.5 kPa, x1 = 0.4939	839.65
300.1 K, 2724.6 kPa, x1 = 0.4939	839.96
300.1 K, 3136.5 kPa, x1 = 0.4939	840.26
300.1 K, 3567.9 kPa, x1 = 0.4939	840.56
300.1 K, 3995.8 kPa, x1 = 0.4939	840.87
300.1 K, 4436.2 kPa, x1 = 0.4939	841.18
300.1 K, 4835.5 kPa, x1 = 0.4939	841.48
300.1 K, 5262 kPa, x1 = 0.4939	841.77
300.1 K, 5699.8 kPa, x1 = 0.4939	842.07
300.1 K, 6161 kPa, x1 = 0.4939	842.39
300.1 K, 6588.4 kPa, x1 = 0.4939	842.68
300.1 K, 7053 kPa, x1 = 0.4939	843
300.1 K, 7437.9 kPa, x1 = 0.4939	843.28
300.1 K, 7862 kPa, x1 = 0.4939	843.57
300.1 K, 8248.5 kPa, x1 = 0.4939	843.86
300.1 K, 8704.4 kPa, x1 = 0.4939	844.15
300.1 K, 9260.6 kPa, x1 = 0.4939	844.49
300.1 K, 9966.4 kPa, x1 = 0.4939	845.04
325.09 K, 28.6 kPa, x1 = 0.4939	814.94
325.09 K, 65.4 kPa, x1 = 0.4939	814.96
325.09 K, 303 kPa, x1 = 0.4939	815.2
325.09 K, 645.3 kPa, x1 = 0.4939	815.47
325.09 K, 1004.8 kPa, x1 = 0.4939	815.8
325.09 K, 1391.9 kPa, x1 = 0.4939	816.13
325.09 K, 1788.1 kPa, x1 = 0.4939	816.48
325.09 K, 2242 kPa, x1 = 0.4939	816.83
325.09 K, 2881.1 kPa, x1 = 0.4939	817.33
325.09 K, 3904.6 kPa, x1 = 0.4939	818.19
325.09 K, 4242.1 kPa, x1 = 0.4939	818.51
325.09 K, 4784.4 kPa, x1 = 0.4939	818.94
325.09 K, 5116.8 kPa, x1 = 0.4939	819.26
325.09 K, 5507.3 kPa, x1 = 0.4939	819.61
325.09 K, 5912.2 kPa, x1 = 0.4939	819.93
325.09 K, 6322.1 kPa, x1 = 0.4939	820.28
325.09 K, 6773 kPa, x1 = 0.4939	820.6
325.09 K, 7214.5 kPa, x1 = 0.4939	820.97
325.09 K, 7613.3 kPa, x1 = 0.4939	821.31
325.09 K, 8080.5 kPa, x1 = 0.4939	821.7
325.09 K, 8603.1 kPa, x1 = 0.4939	822.11
325.09 K, 9197.3 kPa, x1 = 0.4939	822.51
325.09 K, 9561.4 kPa, x1 = 0.4939	822.86
325.1 K, 27.3 kPa, x1 = 0.2483	874.07
325.1 K, 72.6 kPa, x1 = 0.2483	874.13
325.1 K, 410.3 kPa, x1 = 0.2483	874.37
325.1 K, 962.1 kPa, x1 = 0.2483	874.71
325.1 K, 1343 kPa, x1 = 0.2483	875.01
325.1 K, 1859.5 kPa, x1 = 0.2483	875.37
325.1 K, 2332.6 kPa, x1 = 0.2483	875.6
325.1 K, 2826.4 kPa, x1 = 0.2483	875.91
325.1 K, 3319.4 kPa, x1 = 0.2483	876.24
325.1 K, 3776.3 kPa, x1 = 0.2483	876.52
325.1 K, 4236.7 kPa, x1 = 0.2483	876.83
